According to patent US9409908B2 (priority 2012, dated 2016):
Structures can show the parent of a compound that is named as a salt.

These compounds were tested against purified human Factor XIa (Homo sapiens (Human), UniProt P03951) (assay: biochemical). Settings: read-out: Factor XIa Ki.
Format: biochemical

Chain of purified human Factor XIa (P03951 whole entry, looked up): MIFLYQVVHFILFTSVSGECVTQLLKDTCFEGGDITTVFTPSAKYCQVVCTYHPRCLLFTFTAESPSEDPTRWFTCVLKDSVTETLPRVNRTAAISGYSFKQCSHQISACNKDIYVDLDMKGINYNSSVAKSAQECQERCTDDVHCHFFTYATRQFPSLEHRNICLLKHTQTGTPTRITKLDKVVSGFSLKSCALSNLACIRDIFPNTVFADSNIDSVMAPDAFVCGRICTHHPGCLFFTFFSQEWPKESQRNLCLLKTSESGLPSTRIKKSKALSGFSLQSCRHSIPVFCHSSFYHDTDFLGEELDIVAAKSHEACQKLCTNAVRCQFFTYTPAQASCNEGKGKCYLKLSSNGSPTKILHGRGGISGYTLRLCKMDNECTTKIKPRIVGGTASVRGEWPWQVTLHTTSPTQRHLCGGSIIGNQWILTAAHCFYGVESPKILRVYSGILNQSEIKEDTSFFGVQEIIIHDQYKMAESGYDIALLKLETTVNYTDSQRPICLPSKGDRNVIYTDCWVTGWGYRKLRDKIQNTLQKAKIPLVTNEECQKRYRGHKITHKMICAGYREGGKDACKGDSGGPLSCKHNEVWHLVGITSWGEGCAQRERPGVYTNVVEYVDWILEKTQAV
Chain of purified human Factor XIa (P03951 whole entry partner, looked up): as the sequence (P03951 whole entry, looked up) above

| SMILES | Ki |
| --- | --- |
| COC(=O)Nc1ccc2c(c1)NC(=O)[C@H](C)CCC[C@H](N1CCC(c3c(C#N)ccc(Cl)c3F)=CC1=O)c1cccc-2c1 [Example 173, Methyl N-[(10R,14S)-14-[4-(3-chloro-6-cyano-2-fluorophenyl)-6-oxo-1,2,3,6-tetrahydropyridin-1-yl]-10-methyl-9-oxo-8-azatricyclo[13.3.1.0^2,7]nonadeca-1(18),2,4,6,15(19),16-hexaen-5-yl]carbamate] | 0.42 nM |
| C[C@@H]1CCC[C@H](N2CCC(c3c(F)ccc(Cl)c3F)=CC2=O)c2cc(ccn2)-c2ccc(NC(=N)N)cc2NC1=O [Example 192, 1-[(10R,14S)-14-[4-(3-chloro-2,6-difluorophenyl)-6-oxo-1,2,3,6-tetrahydropyridin-1-yl]-10-methyl-9-oxo-8,16-diazatricyclo[13.3.1.0^2,7]nonadeca-1(19),2,4,6,15,17-hexaen-5-yl]guanidine, 2 TFA salt] | 91 nM |
| C[C@@H]1CCC[C@H](N2CCC(c3c(F)ccc(Cl)c3F)=CC2=O)c2cc(ccn2)-c2cc(C(=O)O)ccc2NC1=O [Example 146, (10R,14S)-14-[4-(3-chloro-2,6-difluorophenyl)-6-oxo-1,2,3,6-tetrahydropyridin-1-yl]-10-methyl-9-oxo-8,16-diazatricyclo[13.3.1.0^2,7]nonadeca-1(19),2(7),3,5,15,17-hexaene-4-carboxylic acid] | 2.45 nM |
| C[C@@H]1CCC[C@H](N2CCC(c3c(F)ccc(Cl)c3F)=CC2=O)c2cc(ccn2)-c2ccc(NC3O[C@H](CO)[C@@H](O)[C@H](O)[C@@H]3N)cc2NC1=O (stereo partly drawn) [Example 127, (10R,14S)-5-{[(3S,4R,5S,6R)-3-amino-4,5-dihydroxy-6-(hydroxymethyl)oxan-2-yl]amino)-14-[4-(3-chloro-2,6-difluorophenyl)-6-oxo-1,2,3,6-tetrahydropyridin-1-yl]-10-methyl-8,16-diazatricyclo[13.3.1.0^2,7]nonadeca-1(19),2,4,6,15,17-hexaen-9-one] | 3.61 nM |
| CC1CCC[C@H](N2CCC(c3cccc(Cl)c3F)=CC2=O)c2cc(ccn2)-c2ccc(C(N)=O)cc2NC1=O (stereo partly drawn) [Example 35, (14S)-14-[4-(3-Chloro-2-fluorophenyl)-6-oxo-1,2,3,6-tetrahydropyridin-1-yl]-10-methyl-9-oxo-8,16-diazatricyclo[13.3.1.0^2,7]nonadeca-1(19),2,4,6,15,17-hexaene-5-carboxamide, TFA salt] | 104 nM |
| COC(=O)Nc1ccc2c(c1)NC(=O)[C@H](C)CCC[C@H](N1CCC(c3cncn3Cc3ccccc3)=CC1=O)c1cc-2ccn1 [Example 101, Methyl N-[(10R,14S)-14-[4-(1-benzyl-1H-imidazol-5-yl)-6-oxo-1,2,3,6-tetrahydropyridin-1-yl]-10-methyl-9-oxo-8,16-diazatricyclo[13.3.1.0^2,7]nonadeca-1(19),2,4,6,15,17-hexaen-5-yl]carbamate, bis TFA salt] | > 434 nM |
| COC(=O)c1cc2c(cc1N)NC(=O)[C@H](C)CCC[C@H](N1CCC(c3c(F)ccc(Cl)c3F)=CC1=O)c1cc-2ccn1 [Example 197, Methyl (10R,14S)-5-amino-14-[4-(3-chloro-2,6-difluorophenyl)-6-oxo-1,2,3,6-tetrahydropyridin-1-yl]-10-methyl-9-oxo-8,16-diazatricyclo[13.3.1.0^2,7]nonadeca-1(19),2,4,6,15,17-hexaene-4-carboxylate, 2 TFA salt] | 4.54 nM |
| C[C@@H]1CCC[C@H](N2CCC(c3c(F)ccc(Cl)c3F)=CC2=O)c2cc(ccn2)-c2ccc(O)cc2NC1=O [Example 18, (10R,14S)-14-[4-(3-Chloro-2,6-difluorophenyl)-6-oxo-1,2,3,6-tetrahydropyridin-1-yl]-5-hydroxy-10-methyl-8,16-diazatricyclo[13.3.1.0^2,7]nonadeca-1(19),2,4,6,15,17-hexaen-9-one, TFA salt] | 1.25 nM |
| C[C@@H]1CCC[C@H](N2CCC(c3c(F)ccc(Cl)c3F)=CC2=O)c2cc(ccn2)-c2cc(F)ccc2NC1=O [Example 145, (10R,14S)-14-[4-(3-chloro-2,6-difluorophenyl)-6-oxo-1,2,3,6-tetrahydropyridin-1-yl]-4-fluoro-10-methyl-8,16-diazatricyclo[13.3.1.0^2,7]nonadeca-1(19),2(7),3,5,15,17-hexaen-9-one] | 18.6 nM |
| COC(=O)Nc1ccc2c(c1)NC(=O)[C@H](C)CCC[C@H](N1CCC(c3ccnc(Cl)c3)=CC1=O)c1cc-2ccn1 [Example 156, Methyl N-[(10R,14S)-14-[4-(2-chloropyridin-4-yl)-6-oxo-1,2,3,6-tetrahydropyridin-1-yl]-10-methyl-9-oxo-8,16-diazatricyclo[13.3.1.0^2,7]nonadeca-1(19),2,4,6,15,17-hexaen-5-yl]carbamate, 2 TFA salt] | > 446 nM |
| COC(=O)Nc1ccc2c(c1)NC(=O)[C@H](C)CCC[C@H](N1CCC(c3cc(Cl)ccc3OC(F)F)=CC1=O)c1cc-2ccn1 [Example 44, Methyl N-[(10R,14S)-14-{4-[5-chloro-2-(difluoromethoxy)phenyl]-6-oxo-1,2,3,6-tetrahydropyridin-1-yl}-10-methyl-9-oxo-8,16-diazatricyclo[13.3.1.0^2,7]nonadeca-1(19),2,4,6,15,17-hexaen-5-yl]carbamate, TFA salt] | 0.13 nM |
| C[C@@H]1CCC[C@H](N2CCC(c3c(F)ccc(Cl)c3F)=CC2=O)c2cc(ccn2)-c2ccc(NC(=O)CC(=O)OC(C)(C)C)cc2NC1=O [Example 87, tert-Butyl 2-{[(10R,14S)-14-[4-(3-chloro-2,6-difluorophenyl)-6-oxo-1,2,3,6-tetrahydropyridin-1-yl]-10-methyl-9-oxo-8,16-diazatricyclo[13.3.1.0^2,7]nonadeca-1(19),2,4,6,15,17-hexaen-5-yl]carbamoyl}acetate, TFA salt] | 17.3 nM |
| C[C@@H]1CCC[C@H](N2CCC(c3c(C(F)(F)F)ccc(Cl)c3F)=CC2=O)c2cc(ccn2)-c2ccccc2NC1=O [Example 67, (10R,14S)-14-{4-[3-Chloro-2-fluoro-6-(trifluoromethyl)phenyl]-6-oxo-1,2,3,6-tetrahydropyridin-1-yl}-10-methyl-8,16-diazatricyclo[13.3.1.0^2,7]nonadeca-1(19),2(7),3,5,15,17-hexaen-9-one, TFA salt] | 2.98 nM |
| CC(=O)Nc1ccc2c(c1)NC(=O)[C@H](C)CCC[C@H](N1CCC(c3c(F)ccc(Cl)c3F)=CC1=O)c1cc-2ccn1 [Example 75, N-[(10R,14S)-14-[4-(3-Chloro-2,6-difluorophenyl)-6-oxo-1,2,3,6-tetrahydropyridin-1-yl]-10-methyl-9-oxo-8,16-diazatricyclo[13.3.1.0^2,7]nonadeca-1(19),2(7),3,5,15,17-hexaen-5-yl]acetamide, TFA salt] | 3.54 nM |
| C[C@@H]1CCC[C@H](N2CCC(c3c(F)ccc(Cl)c3F)=CC2=O)c2cc(ccn2)-n2nc(C3CC3)cc2NC1=O [Example 223, (9R,13S)-13-[4-(3-chloro-2,6-difluorophenyl)-6-oxo-1,2,3,6-tetrahydropyridin-1-yl]-4-cyclopropyl-9-methyl-2,3,7,15-tetraazatricyclo[12.3.1.0^2,6]octadeca-1(18),3,5,14,16-pentaen-8-one] | 302 nM |
| C[C@@H]1CCC[C@H](N2CCC(c3c(-n4cnnn4)ccc(Cl)c3F)=CC2=O)c2cc(ccn2)-c2ccccc2NC1=O [Example 68, (10R,14S)-14-{4-[3-Chloro-2-fluoro-6-(1H-1,2,3,4-tetrazol-1-yl)phenyl]-6-oxo-1,2,3,6-tetrahydropyridin-1-yl}-10-methyl-8,16-diazatricyclo[13.3.1.0^2,7]nonadeca-1(19),2(7),3,5,15,17-hexaen-9-one, TFA salt] | 0.05 nM |
| C[C@@H]1CCC[C@H](N2CCC(c3c(F)ccc(Cl)c3F)=CC2=O)c2cc(ccn2)-c2cc(I)c(N)cc2NC1=O [Example 61, (10R,14S)-5-Amino-14-[4-(3-chloro-2,6-difluorophenyl)-6-oxo-1,2,3,6-tetrahydropyridin-1-yl]-4-iodo-10-methyl-8,16-diazatricyclo[13.3.1.0^2,7]nonadeca-1(19),2,4,6,15,17-hexaen-9-one, TFA salt] | 24.6 nM |
| C[C@@H]1CCC[C@H](N2CCC(c3c(F)ccc(Cl)c3F)=CC2=O)c2cc(ccn2)-c2ccc(N)cc2NC1=O [Example 12, (10R,14S)-5-Amino-14-[4-(3-chloro-2,6-difluorophenyl)-6-oxo-1,2,3,6-tetrahydropyridin-1-yl]-10-methyl-8,16-diazatricyclo[13.3.1.0^2,7]nonadeca-1(19),2,4,6,15,17-hexaen-9-one] | 1.5 nM |
| C#Cc1ccc(Cl)c(F)c1C1=CC(=O)N([C@H]2CCC[C@@H](C)C(=O)Nc3cc(NC(=O)OC)ccc3-c3ccnc2c3)CC1 [Example 181, Methyl N-[(10R,14S)-14-[4-(3-chloro-6-ethynyl-2-fluorophenyl)-6-oxo-1,2,3,6-tetrahydropyridin-1-yl]-10-methyl-9-oxo-8,16-diazatricyclo[13.3.1.0^2,7]nonadeca-1(19),2(7),3,5,15,17-hexaen-5-yl]carbamate] | 0.1 nM |
| C[C@@H]1CCC[C@H](n2ccc(-c3c(F)ccc(Cl)c3F)cc2=O)c2cc(ccn2)-c2ccc(Nc3ncccn3)cc2NC1=O [Example 92, (10R,14S)-14-[4-(3-Chloro-2,6-difluorophenyl)-2-oxo-1,2-dihydropyridin-1-yl]-10-methyl-5-[(pyrimidin-2-yl)amino]-8,16-diazatricyclo[13.3.1.0^2,7]nonadeca-1(19),2(7),3,5,15,17-hexaen-9-one, 2 TFA salt] | 0.56 nM |
| C[C@@H]1CCC[C@H](N2CCC(c3c(F)ccc(Cl)c3F)=CC2=O)c2cc(ccn2)-c2ccc(NC(=O)OCCOC(C)(C)C)cc2NC1=O [Example 53, 2-(tert-Butoxy)ethyl N-[(10R,14S)-14-[4-(3-chloro-2,6-difluorophenyl)-6-oxo-1,2,3,6-tetrahydropyridin-1-yl]-10-methyl-9-oxo-8,16-diazatricyclo[13.3.1.0^2,7]nonadeca-1(19),2,4,6,15,17-hexaen-5-yl]carbamate, TFA salt] | 0.08 nM |
| COC(=O)Nc1ccc2c(c1)NC(=O)[C@H](C)CCC[C@H](N1CCC(c3c(C#N)ccc(C)c3F)=CC1=O)c1cc-2ccn1 [Example 104, Methyl N-[(10R,14S)-14-[4-(6-cyano-2-fluoro-3-methylphenyl)-6-oxo-1,2,3,6-tetrahydropyridin-1-yl]-10-methyl-9-oxo-8,16-diazatricyclo[13.3.1.0^2,7]nonadeca-1(18),2,4,6,15(19),16-hexaen-5-yl]carbamate, TFA salt] | 0.09 nM |
